Starred links: 1 amine or outer side, 2 acyl side, 3 side chain; linkers in the order of their positions; H or OH if unused. Positions of bridges follow the written chain, without caps; N, C: chain ends. Non-standard residues stand in square brackets, D forms with d. Residues, ends and D or L forms follow the SMILES beside them. ξ: configuration not given here. *: point of attachment. NMePhe(3-Cl) = CN[C@@H](Cc1cccc(Cl)c1)C(=O)O; NMePhe(4-Cl) = CN[C@@H](Cc1ccc(Cl)cc1)C(=O)O; X16 = O=C(C1CCCCC1)[C@H](CC(=O)[*:2])N[*:1]; NMehPhe = CN[C@@H](CCc1ccccc1)C(=O)O; hhPhe = N[C@@H](CCCc1ccccc1)C(=O)O; NMeF = CN[C@@H](Cc1ccccc1)C(=O)O; NMeGABA = CN(CCCC(=O)[*:2])[*:1]; NMeI = CC[C@H](C)[C@H](NC)C(=O)O; hPhe = N[C@@H](CCc1ccccc1)C(=O)O; 4Pal = N[C@@H](Cc1ccncc1)C(=O)O; NMeD = CN[C@@H](CC(=O)O)C(=O)O; NMeL = CN[C@@H](CC(C)C)C(=O)O; ξNMeF = CNC(Cc1ccccc1)C(=O)O; NMeV = CN[C@H](C(=O)O)C(C)C; NMeA = CN[C@@H](C)C(=O)O; Piperidide = C1CCN(*)CC1; dNMeA = CN[C@H](C)C(=O)O; X2 = Fc1cncc(C*)c1; Sar = CNCC(=O)O; tBu = CC(C)(C)*

The values below come from patent US20200131669A1, “CYCLIC PEPTIDE COMPOUND HAVING HIGH MEMBRANE PERMEABILITY, AND LIBRARY CONTAINING SAME” (Chugai Seiyaku Kabushiki Kaisha, priority 2017, published 2020).

A short description of the first data set: Caco-2 membrane permeability, improved method as used in the following Examples (96-well, 20 to 24 h preincubation). Format: in vitro ADME. As to conditions: human, Caco-2, Caco-2 (cm/sec). A digest of the protocol: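 Caco-2 monolayers were grown three weeks and preincubated 20–24 h at 37 °C with compound in DMEM+FaSSIF (1% DMSO) apically. The assay then used compound in FaSSIF/HBSS (1% DMSO, pH 6.0) apically and HBSS with 4% BSA (pH 7.4) basally. Basal samples were taken at 180 min for LC/MS, and Papp (cm/sec) was calculated.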
For `CC(C)C[C@H]1C(=O)N[C@@H](COC(C)(C)C)C(=O)N(C)[C@@H](Cc2ccccc2)C(=O)N(C)[C@@H](CC(C)C)C(=O)N(C)[C@H](C(=O)N2CCCCC2)CC(=O)N2CCC[C@@H]2C(=O)N(C)[C@@H](Cc2cccc(Cl)c2)C(=O)N[C@@H](C(C)C)C(=O)N(C)[C@@H](C(C)C)C(=O)N[C@@H]([C@@H](C)O)C(=O)N(C)CC(=O)N1C` [pd165] ([dP][NMePhe(3-Cl)]V[NMeV]T[Sar][NMeL]S(tBu)[NMeF][NMeL][NMeD]-Piperidide; lactam N-11), the Papp A→B at 180 min came to 2.8 ×10⁻⁶ cm/s.
`CC(C)C[C@H]1C(=O)N[C@@H](COC(C)(C)C)C(=O)N(C)[C@@H](Cc2ccccc2)C(=O)N(C)[C@@H](CC(C)C)C(=O)N(C)[C@H](C(=O)N2CCCCC2)CC(=O)N2CCC[C@H]2C(=O)N(C)[C@@H](Cc2cccc(Cl)c2)C(=O)N[C@@H](C(C)C)C(=O)N(C)[C@@H](C(C)C)C(=O)N[C@@H]([C@@H](C)O)C(=O)N(C)CC(=O)N1C` [pd166] (P[NMePhe(3-Cl)]V[NMeV]T[Sar][NMeL]S(tBu)[NMeF][NMeL][NMeD]-Piperidide; lactam N-11) displayed a Papp A→B at 180 min of 3.2 ×10⁻⁶ cm/s.
Still for that read-out and setting: as for `CC(C)C[C@H]1C(=O)N[C@@H](COC(C)(C)C)C(=O)N(C)[C@@H](Cc2ccccc2)C(=O)N(C)[C@@H](CC(C)C)C(=O)N(C)[C@H](C(=O)N2CCCCC2)CC(=O)N(C)[C@H](C)C(=O)N(C)[C@@H](Cc2cccc(Cl)c2)C(=O)N[C@@H](C(C)C)C(=O)N(C)[C@@H](C(C)C)C(=O)N[C@@H]([C@@H](C)O)C(=O)N(C)CC(=O)N1C` [pd168] ([dNMeA][NMePhe(3-Cl)]V[NMeV]T[Sar][NMeL]S(tBu)[NMeF][NMeL][NMeD]-Piperidide; lactam N-11), the figure is 2.3 ×10⁻⁶ cm/s.
`CC(C)C[C@H]1C(=O)N[C@@H](COC(C)(C)C)C(=O)N(C)[C@@H](Cc2ccccc2)C(=O)N(C)[C@@H](CC(C)C)C(=O)N(C)[C@H](C(=O)N2CCCCC2)CC(=O)N(C)[C@@H](C)C(=O)N(C)[C@@H](Cc2cccc(Cl)c2)C(=O)N[C@@H](C(C)C)C(=O)N(C)[C@@H](C(C)C)C(=O)N[C@@H]([C@@H](C)O)C(=O)N(C)CC(=O)N1C` [pd169] ([NMeA][NMePhe(3-Cl)]V[NMeV]T[Sar][NMeL]S(tBu)[NMeF][NMeL][NMeD]-Piperidide; lactam N-11): the Papp A→B at 180 min was determined as 3.8 ×10⁻⁶ cm/s.
Compound `CC[C@H](C)[C@@H]1NC(=O)[C@H](CC(C)C)N(C)C(=O)CCCN(C)C(=O)C[C@@H](C(=O)C2CCCCC2)NC(=O)[C@H](CC(C)C)N(C)C(=O)[C@H](C)N(C)C(=O)[C@H](Cc2ccncc2)NC(=O)[C@H](CC(C)C)N(C)C(=O)[C@H](COC(C)(C)C)NC(=O)[C@H](Cc2cccc(Cl)c2)N(C)C(=O)[C@H](CC(C)C)N(C)C1=O` [pd170] (cyclo([4Pal][NMeA][NMeL][X16][NMeGABA][NMeL]I[NMeL][NMePhe(3-Cl)]S(tBu)[NMeL])) yielded a Papp A→B at 180 min of 1.6 ×10⁻⁶ cm/s.
The same measure, in the same setting: in the case of `CC(C)C[C@@H]1NC(=O)[C@H](CC(C)C)N(C)C(=O)[C@H](C)N(C)C(=O)[C@H]([C@@H](C)O)NC(=O)[C@H](CC(C)C)N(C)C(=O)[C@H](COC(C)(C)C)NC(=O)[C@H](Cc2cccc(Cl)c2)N(C)C(=O)[C@H](CC(C)C)NC(=O)[C@H](C(C)C)N(C)C(=O)[C@@H](C(C)C)NC(=O)C[C@@H](C(=O)N2CCCCC2)NC1=O` [pd171] ([dV][NMeV]L[NMePhe(3-Cl)]S(tBu)[NMeL]T[NMeA][NMeL]LD-Piperidide; lactam N-11) it was 1.2 ×10⁻⁶ cm/s; in that of `CC(C)C[C@@H]1NC(=O)[C@H](CC(C)C)N(C)C(=O)[C@@H](CC(C)C)NC(=O)C[C@@H](C(=O)N2CCCCC2)NC(=O)[C@H](CC(C)C)N(C)C(=O)[C@H](Cc2cccc(Cl)c2)N(C)C(=O)[C@H](Cc2ccncc2)NC(=O)[C@H](CC(C)C)N(C)C(=O)CN(C)C(=O)[C@H]([C@@H](C)O)NC(=O)[C@H](CC(C)C)N(C)C1=O` [pd172] ([dL][NMeL]L[NMeL]T[Sar][NMeL][4Pal][NMePhe(3-Cl)][NMeL]D-Piperidide; lactam N-11), 1.1 ×10⁻⁶ cm/s; in that of `CC(C)C[C@@H]1NC(=O)[C@H](C)N(C)C(=O)C[C@@H](C(=O)N2CCCCC2)NC(=O)[C@H](CC(C)C)N(C)C(=O)CN(C)C(=O)[C@H]([C@@H](C)O)NC(=O)[C@H](CC(C)C)N(C)C(=O)[C@H](Cc2ccc(Cl)cc2)N(C)C(=O)[C@H](C)NC(=O)[C@H](Cc2ccccc2)N(C)C(=O)[C@H](CC(C)C)N(C)C1=O` [pd173] ([NMeA]L[NMeL][NMeF]A[NMePhe(4-Cl)][NMeL]T[Sar][NMeL]D-Piperidide; lactam N-11), 1.6 ×10⁻⁶ cm/s.
The same measure, in the same setting: as for `CC[C@H](C)[C@@H]1NC(=O)[C@H](Cc2ccccc2)N(C)C(=O)CN(C)C(=O)C[C@@H](C(=O)N2CCCCC2)NC(=O)[C@H](C(C)C)N(C)C(=O)[C@H](COC(C)(C)C)NC(=O)[C@H](CC(C)C)N(C)C(=O)[C@H](Cc2ccc(Cl)cc2)N(C)C(=O)CN(C)C(=O)[C@H]([C@@H](C)O)NC(=O)[C@H](CC(C)C)N(C)C1=O` [pd175] ([Sar][NMeF]I[NMeL]T[Sar][NMePhe(4-Cl)][NMeL]S(tBu)[NMeV]D-Piperidide; lactam N-11), the figure is 1.1 ×10⁻⁶ cm/s.
In turn, `CC[C@H](C)[C@@H]1NC(=O)[C@H](Cc2ccc(Cl)cc2)N(C)C(=O)CN(C)C(=O)C[C@@H](C(=O)N2CCCCC2)NC(=O)[C@H](C(C)C)N(C)C(=O)[C@H](COC(C)(C)C)NC(=O)[C@H](CC(C)C)N(C)C(=O)[C@H](Cc2ccccc2)N(C)C(=O)CN(C)C(=O)[C@H]([C@@H](C)O)NC(=O)[C@H](CC(C)C)N(C)C1=O` [pd176] ([Sar][NMePhe(4-Cl)]I[NMeL]T[Sar][NMeF][NMeL]S(tBu)[NMeV]D-Piperidide; lactam N-11) came in with a Papp A→B at 180 min of 1.2 ×10⁻⁶ cm/s.
Still for that read-out and setting: in the case of `CC(C)C[C@H]1C(=O)N[C@@H](COC(C)(C)C)C(=O)N(C)[C@@H](Cc2ccccc2)C(=O)N(C)[C@@H](C(C)C)C(=O)N[C@H](C(=O)N2CCCCC2)CC(=O)N[C@H](C(C)C)C(=O)N(C)C(Cc2ccccc2)C(=O)N[C@@H](COCc2cncc(F)c2)C(=O)N(C)[C@@H](CC(C)C)C(=O)N[C@@H]([C@@H](C)O)C(=O)N(C)CC(=O)N1C` (stereo partly drawn) [pd180] ([dV][ξNMeF]S(X2)[NMeL]T[Sar][NMeL]S(tBu)[NMeF][NMeV]D-Piperidide; lactam N-11) it was 2.4 ×10⁻⁶ cm/s.
The same measure, in the same setting: as for `CC[C@H](C)[C@H]1C(=O)N[C@@H]([C@@H](C)O)C(=O)N(C)CC(=O)N(C)[C@@H](CC(C)C)C(=O)N[C@H](C(=O)N2CCCCC2)CC(=O)N(C)[C@@H](C(C)C)C(=O)N[C@@H](COCc2cncc(F)c2)C(=O)N(C)[C@@H](CC(C)C)C(=O)N(C)[C@@H](Cc2ccccc2)C(=O)N[C@@H](CC(C)C)C(=O)N(C)[C@@H](Cc2ccccc2)C(=O)N1C` [pd181] ([NMeV]S(X2)[NMeL][NMeF]L[NMeF][NMeI]T[Sar][NMeL]D-Piperidide; lactam N-11), the figure is 1.1 ×10⁻⁶ cm/s; as for `CC(C)C[C@H]1C(=O)N(C)[C@@H](Cc2ccccc2)C(=O)N[C@@H](COC(C)(C)C)C(=O)N(C)[C@@H](C)C(=O)N[C@H](C(=O)N2CCCCC2)CC(=O)N(C)[C@@H](C)C(=O)N(C)[C@@H](Cc2ccccc2)C(=O)N[C@@H](CCc2ccccc2)C(=O)N(C)[C@@H](CC(C)C)C(=O)N[C@@H]([C@@H](C)O)C(=O)N(C)CC(=O)N1C` [pd183] ([NMeA][NMeF][hPhe][NMeL]T[Sar][NMeL][NMeF]S(tBu)[NMeA]D-Piperidide; lactam N-11), 2.1 ×10⁻⁶ cm/s; as for `CC(C)C[C@H]1C(=O)N(C)[C@@H](CCc2ccccc2)C(=O)N[C@@H](COC(C)(C)C)C(=O)N(C)[C@@H](C)C(=O)N[C@H](C(=O)N2CCCCC2)CC(=O)N(C)[C@@H](C)C(=O)N(C)[C@@H](Cc2ccccc2)C(=O)N[C@@H](CCc2ccccc2)C(=O)N(C)[C@@H](CC(C)C)C(=O)N[C@@H]([C@@H](C)O)C(=O)N(C)CC(=O)N1C` [pd184] ([NMeA][NMeF][hPhe][NMeL]T[Sar][NMeL][NMehPhe]S(tBu)[NMeA]D-Piperidide; lactam N-11), 1.2 ×10⁻⁶ cm/s.
On the same count and under the same terms, in the case of `CC(C)C[C@H]1C(=O)N[C@@H](COC(C)(C)C)C(=O)N(C)[C@@H](Cc2ccccc2)C(=O)N(C)[C@@H](C)C(=O)N[C@H](C(=O)N2CCCCC2)CC(=O)N[C@H](C(C)C)C(=O)N(C)[C@@H](Cc2ccccc2)C(=O)N[C@@H](CCCc2ccccc2)C(=O)N(C)[C@@H](CC(C)C)C(=O)N[C@@H]([C@@H](C)O)C(=O)N(C)CC(=O)N1C` [pd192] ([dV][NMeF][hhPhe][NMeL]T[Sar][NMeL]S(tBu)[NMeF][NMeA]D-Piperidide; lactam N-11) it was 1.1 ×10⁻⁶ cm/s.

Staying with this data set, now noted: human, Caco-2, improved method, preincubation 20 to 24 hours; Papp, sample at 180 minutes; read-out: Caco-2.
As for `CC(C)C[C@@H]1NC(=O)[C@H](Cc2ccc(Cl)cc2)N(C)C(=O)[C@H](CC(C)C)N(C)C(=O)[C@H](C(C)C)NC(=O)[C@H](C)N(C)C(=O)C[C@@H](C(=O)N2CCCCC2)NC(=O)[C@H](CC(C)C)N(C)C(=O)CN(C)C(=O)[C@H]([C@@H](C)O)NC(=O)[C@H](CC(C)C)N(C)C(=O)[C@H](Cc2ccccc2)N(C)C1=O` [pd174] ([NMeA]V[NMeL][NMePhe(4-Cl)]L[NMeF][NMeL]T[Sar][NMeL]D-Piperidide; lactam N-11), the Papp A→B at 180 min was 1.3 ×10⁻⁶ cm/s.
